Source: PubChem BioAssay (NCI)
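48-hour exposure; five concentrations; linearly interpolated endpoints. At the GI50, growth is halved. TGI marks complete inhibition of growth.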

What was measured:
Test in all cases: growth of human tumour cells (NCI), 48 h
[1] = system: EKVX NSCLC
[2] = system: RPMI-8226 leukemia
[3] = system: ACHN renal
[4] = system: A498 renal
[5] = system: SR leukemia
[6] = system: BT-549 breast
[7] = system: NCI-H522 lung
[8] = system: UO-31 renal
[9] = system: MCF7 breast
[10] = system: SNB-19 CNS
[11] = system: HOP-92 NSCLC

Compound	TGI [1] [µM]	TGI [2] [µM]	TGI [3] [µM]	TGI [4] [µM]	TGI [5] [µM]	TGI [6] [µM]	TGI [7] [µM]	TGI [8] [µM]	TGI [9] [µM]	TGI [10] [µM]	TGI [11] [µM]	GI50 [1] [µM]	GI50 [3] [µM]	GI50 [7] [µM]	GI50 [9] [µM]	GI50 [10] [µM]
COc1ccc(-n2[nH]nc(C(N)=O)c2=O)cc1	> 100	> 100	> 100	> 100	> 100	> 100	> 100	> 100	> 100	> 100						
CC1=NC2=Nc3nc(C)cc[n+]3CN2C=C1	75.8	67.5	> 100	> 100		> 100	> 100	> 100	> 100	> 100	> 100					
O=S(=O)(O)c1cc(N=Nc2c(O)ccc3ccccc23)ccc1/C=C/c1ccc(N=Nc2c(O)ccc3ccccc23)cc1S(=O)(=O)O	> 100	> 100	> 100			> 100	> 100	> 100		> 100	> 100					
COC(=O)C1Cc2cc3c(cc2C1=O)CCCC3 (stereo not drawn)	> 100	> 100	> 100	> 100	> 100	> 100	> 100	> 100	> 100	> 100						
c1cc2c(s1)-c1sccc1C21OCCO1	> 100	> 100	> 100		> 100	> 100	> 100	> 100	> 100	> 100						
CC(NC(=O)NC(C)(C)C)NC(=O)C(N)CC(=O)O (stereo not drawn)	> 100	> 100	> 100	> 100		> 100	> 100	> 100	> 100	> 100	> 100					
C=C1C(=O)O[C@H]2C[C@@]3(COC(C)=O)C=COC=C(COC(=O)C(C)C)C3CC12 (stereo partly drawn)	> 100	63.6	> 100		91.8	> 100	> 100	> 100	> 100	> 100						
Cc1ccc2c(c1)C(=O)c1nc(C)ccc1C2=O	> 100	74.1	> 100	> 100	> 100	> 100	74.2	86.2	> 100	63.7						
CC(=O)OC12C3C4C1C1C2C3C41OC(C)=O (stereo not drawn)	> 100	> 100	> 100	> 100	> 100	> 100	> 100	> 100	> 100		> 100					
Cc1nc(CC#N)n[nH]1	> 100	> 100	> 100		> 100	> 100	> 100	> 100	> 100	> 100	> 100					
O=C(O)CCC(=O)c1ccc2c(c1)C(C(=O)O)CC2 (stereo not drawn)	> 100	> 100	> 100	> 100	> 100		> 100	> 100	> 100	> 100	> 100					
CS(=O)(=O)c1nc(-c2cc3c(c(S(C)(=O)=O)n2)CCCC3)cc2c1CCCCC2	> 100	> 100	> 100			> 100	> 100			> 100						
CCOC(=O)c1[nH]c(Br)c(-c2ccc(OC)c(OC)c2)c1Br	43.3	16.6	22.6	0.194	13.4	3.16	0.349	9.96	17.2	17.6		10.4	0.239	0.0328	0.338	0.0137
COC(=O)CCC1=C(CC(=O)OC)C(C)(OC)N=C1NC(=O)OCc1ccccc1 (stereo not drawn)	> 100	> 100	> 100	> 100	> 100	> 100	> 100	> 100	> 100	> 100						
O=C1c2ccccc2C(=O)c2cc(N=Nc3c(O)ccc4ccccc34)ccc21	> 100	> 100	> 100	> 100	> 100	> 100	> 100	> 100		> 100	> 100					
c1cc2c(cc1NC1=NCCO1)OCO2	> 100	> 100	> 100	> 100	> 100		> 100	> 100	> 100	> 100	> 100					
CCN(CC)CCCNc1ccc2nc(C)n3c4ccc(O)cc4c(=O)c1c23	24.4	10.8	15.2	24.5		25.6	14.3	19.3	17.6	22	11.4					
Cc1cc2/c(=C\c3ccc(N(C)C)cc3)c3ccccc3n2[n+]1C	8.79	0.738	10	9.33		5.99	1.99	15.3	6.55	4.52	3.52					
Cc1cnc2sn(-c3ccc([N+](=O)[O-])cc3)c(=O)c2c1	> 100	> 100	> 100		> 100	> 100	> 100	> 100	> 100	> 100	> 100					
CCCCCCCCCCCCCCCCNC(=O)C(=O)/C=C(\O)c1ccc(C)cc1	> 10	> 10	> 10	> 10	> 10		> 10	> 10	> 10							
Cc1ccc(SC2C(=O)C3CC(OCc4ccccc4)C2(C)C3(C)C)cc1 (stereo not drawn)	> 100		> 100	> 100	> 100	> 100		> 100	> 100	> 100	> 100					
[N-]=[N+]=NC1OC(=O)C(Cl)=C1N=P(c1ccccc1)(c1ccccc1)c1ccccc1 (stereo not drawn)	> 10	8.33	> 10	> 10		> 10	> 10	> 10	> 10	> 10						
